From patent US20090149482A1, “STEREOCHEMICALLY DEFINED DIPEPTIDE ESTERS OF ANTIVIRAL AGENTS FOR ENHANCED OCULAR TREATMENT” (priority 2001, published 2009)
“And” between values parts separate entries of the source, which are not always exact repeats. Equal values may be shown once. Read-outs that look alike come from different tables or passages of the source.

What was measured:
HCMV = assay: In vitro antiviral screening, CPE inhibition in HFF cells; assay type: cell-based, human cytomegalovirus; settings: for EC50: HCMV, CPE Inhibition
VZV = assay: as above; assay type: cell-based, varicella zoster virus; settings: VZV, CPE Inhibition
[1] = system: oligopeptide transporter on the rabbit cornea
hPEPT1 = biological target: T1, hPEPT1 (Homo sapiens, UniProt P46059); assay: [3H] Glycylsarcosine uptake and its inhibition in Caco-2 cells (affinity towards peptide transporter); assay type: cell-based
T1 construct: endogenous in cells; host or cells: Caco-2 (human colon carcinoma, ATCC)
T1 sequence (P46059 1-708): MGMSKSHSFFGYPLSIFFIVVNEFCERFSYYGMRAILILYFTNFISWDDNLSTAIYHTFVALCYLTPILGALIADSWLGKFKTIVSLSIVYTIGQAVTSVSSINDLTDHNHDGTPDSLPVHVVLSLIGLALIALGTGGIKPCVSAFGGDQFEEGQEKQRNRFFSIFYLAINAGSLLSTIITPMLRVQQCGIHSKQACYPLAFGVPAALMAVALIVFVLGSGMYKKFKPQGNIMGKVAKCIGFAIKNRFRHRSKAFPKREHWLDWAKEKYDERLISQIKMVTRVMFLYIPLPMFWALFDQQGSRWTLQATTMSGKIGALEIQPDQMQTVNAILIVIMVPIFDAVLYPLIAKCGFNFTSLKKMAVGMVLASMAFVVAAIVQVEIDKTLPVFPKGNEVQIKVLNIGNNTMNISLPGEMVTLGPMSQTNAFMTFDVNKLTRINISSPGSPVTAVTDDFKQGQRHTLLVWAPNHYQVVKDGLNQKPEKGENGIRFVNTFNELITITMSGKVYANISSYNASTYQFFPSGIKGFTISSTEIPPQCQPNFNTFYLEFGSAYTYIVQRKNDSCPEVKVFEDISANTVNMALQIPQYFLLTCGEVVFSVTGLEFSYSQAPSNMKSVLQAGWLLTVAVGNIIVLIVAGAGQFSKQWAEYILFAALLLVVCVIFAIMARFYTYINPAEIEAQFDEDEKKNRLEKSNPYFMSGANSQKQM

HSV-2 = assay: In vitro antiviral screening, CPE inhibition in HFF cells; assay type: cell-based, herpes simplex virus 2; settings: for EC50: HSV-2, CPE Inhibition
[2] = for first order hydrolytic rate constant k: 37° C.
HSV-1 = assay: In vitro antiviral screening, CPE inhibition in HFF cells; assay type: cell-based, herpes simplex virus 1
[3] = system: rabbit corneal cell line (SIRC); settings: SIRC cells
EBV = assay: In vitro antiviral screening, VCA Elisa; assay type: cell-based, epstein-barr virus; settings: for EC50: EBV, VCA Elisa
[4] = pH 1.2, * = no measurable degradation during 7 day experiment
[5] = pH 2.6, * = no measurable degradation during 7 day experiment

CC(C)C(N)C(=O)NC(C(=O)OCCOCn1cnc2c(=O)[nH]c(N)nc21)C(C)C (stereo not drawn) [Val-Val-ACV, Val-Valacyclovir]
EC50 (HCMV): > 186 µM | EC50 (VZV): 0.09 µM | Papp (% Control) of [3H] Val-ACV [1]: 18.6 (±8.9) % Control | Vmax of Gly-Sar uptake in presence of the drug (hPEPT1): 0.099 ± 0.10 µmol/min/mg | IC50 (hPEPT1; read-out: IC50 of inhibition of [3H] Gly-Sar uptake): 3460 ± 210 µM | Ki (hPEPT1; read-out: Ki): 1940 µM and 1890 µM and 2510 µM | EC50 (HSV-2): 22.7 µM | first order hydrolytic rate constant k [2, 4]: 0.0062 k × 10^3 min^−1 | first order hydrolytic rate constant k [2, 5]: 0.0051 k × 10^3 min^−1 | stability as an ophthalmic solution ([2]; pH 5.6, concluded from rate constants): stable for two years | first order hydrolytic rate constant k ([2]; pH 7.4): 0.107 k × 10^3 min^−1 | first order hydrolytic rate constant k ([2]; pH 9.0): 0.24 k × 10^3 min^−1 | EC50 (HSV-1; read-out: EC50 against HSV-1): 6.14 µM | percent survival ([3]; 0.25 mM): 86.3% | percent survival ([3]; 0.5 mM): 85.8% | percent survival ([3]; 1 mM): 87.0% | percent survival ([3]; 2 mM): 87.0% | % viable cells ([3]; 5 mM): 90.1±4.6% | percent survival ([3]; 5 mM): 99.3% | percent survival ([3]; 10 mM): 54.03% | EC50 (EBV): 93.1 µM

CC(C)[C@H](N)C(=O)OCCOCn1cnc2c(=O)[nH]c(N)nc21 [Val-ACV, L-Valine-acyclovir]
SI (Selectivity Index) = CC50/EC50 (HCMV): SI > 9 | EC50 (HCMV; Human betaherpesvirus 5, HFF): 30.8 µM | EC50 (VZV; Human alphaherpesvirus 3, HFF): < 0.08 µM | Papp (% Control) of [3H] Val-ACV [1]: 20.1 (±6.7) % Control | Ki (hPEPT1): 1410 ± 560 µM | Vmax of Gly-Sar uptake in presence of the drug (hPEPT1): 0.081 ± 0.09 µmol/min/mg | SI (Selectivity Index) = CC50/EC50 (HSV-2): SI > 35.7 | EC50 (HSV-2; Human alphaherpesvirus 2, HFF): 7.77 µM | first order hydrolytic rate constant k [2, 4]: 1.22 k × 10^3 min^−1 | first order hydrolytic rate constant k [2, 5]: 0.41 k × 10^3 min^−1 | first order hydrolytic rate constant k ([2]; pH 4.2, * = no measurable degradation during 7 day experiment): 0.008 k × 10^3 min^−1 | first order hydrolytic rate constant k ([2]; pH 5.6, * = no measurable degradation during 7 day experiment): 0.16 k × 10^3 min^−1 | first order hydrolytic rate constant k ([2]; pH 7.4): 0.67 k × 10^3 min^−1 | first order hydrolytic rate constant k ([2]; pH 9.0): 1.63 k × 10^3 min^−1 | EC50 (HSV-1; Human alphaherpesvirus 1, HFF, read-out: EC50 (concentration required to inhibit viral cytopathogenicity by 50%), HSV-1, CPE Inhibition): 9.1 µM | EC50 (HSV-1; Human alphaherpesvirus 1, HFF, HSV-1, running text, read-out: EC50 against HSV-1): 9.1 µM | % viable cells ([3]; 5 mM): 89.3±5.1% | SI (Selectivity Index) = CC50/EC50 (EBV): SI > 250 | EC50 (EBV; human gammaherpesvirus 4): 0.55 µM
